{"source": "patent US20230158084A1", "about": "“PROBIOTICS, METABOLITES, AND USES THEREOF” (California Institute of Technology, priority 2018, published 2023)", "system": "BTBR mice", "experiment": "Open field testing (OFT), BTBR mice given metabolites", "assay_type": "in vivo, mouse", "details": "BTBR offspring; 10 mM in drinking water before mating and throughout lifetime (prenatal administration); vs untreated vehicle controls", "description": "FIGS. 5A-D are a series of drawings illustrating that differential metabolites impact ASD-relevant behaviors in SPF mice in accordance with some embodiments herein. FIG. 5A: The abundance of select metabolites in the offspring microbiome is correlated with behavior of male offspring. Spearman correlation between the microbiome and mouse behavior, by donor (See FIGS. 1A-0). […] Color scale denotes Spearman ρ. […] Groups of mice were orally administered 10 mM Taurine or 5AV in drinking water before mating, and throughout their lifetime. Offspring were tested by marble burying, direct social interaction, and open field tests, and compared to untreated vehicle controls. Results are aggregated from 2 independent experiments. NControl=42, […]=52, NTaurine=36. […] Open field testing (OFT)-OFT, as a measure for locomotion and anxiety, was performed in 50×50 cm^2 white plexiglas arenas, recorded using an overhead camera, and tracked and analyzed using the EthoVision XT 10 software package (Noldus Information Technology). […] The distance traveled, as well as the number of entries and time spend in a 30×30 cm^2 center square, were analyzed by the EthoVision software. […] As such, it will be appreciated that at a given stage of development, some molecules may readily pass through the blood brain barrier, while others may not.", "data": [{"smiles": "NCCS(=O)(=O)O", "note": "[taurine]", "values": [{"measurement": "anxiety, as measured by center duration in the OFT", "result": "reduces anxiety"}]}]}
